Structures can show the parent of a compound that is named as a salt.
Columns and labels:
[1] = tested on: cough experimentally induced by electric stimulation of the vagus nerve in the guinea pig; test: Antitussive activity: cough induced by electric stimulation of the vagus nerve; assay type: in vivo; settings: for inhibition in vivo at 100 mg/kg / ED50: Cavia porcellus; for inhibition in vivo at 100 mg/kg: 100 mg/kg oral, stimulus 20 and 40 minutes after administration, 6 negative responses = 100%, groups of 6 guinea pigs, read-out: Percentage cough inhibition; for ED50: guinea pig, oral, vagus nerve stimulation, read-out: ED50 (dose which reduces the number of coughs by 50%); for antitussive activity (in words): conclusion from Table 3 results
Experimental: The test consists of stimulating the vagus nerve of the guinea pig and repeating the stimulus 20 and 40 minutes after oral administration of 100 mg/kg of the product under test. 6 Negative responses (3 after 20 minutes and 3 after 40 minutes) represent a cough inhibition of 100%. The test was carried out in groups of 6 animals against groups of control animals (undosed).
In addition, for certain compounds the ED50 was also determined, i.e. that dose which reduces the number of coughs by 50%.

[2] = Acute toxicity, oral; settings: guinea pig, in vivo; guinea pigs, increasing oral dose
Experimental: The acute toxicity of some of compounds of the invention was determined on guinea pigs which had received an increasing oral dose of the compound.

| Compound | inhibition in vivo at 100 mg/kg [1] [%] | LD50 [2] [mg/kg] | ED50 [1] [mg/kg] | antitussive activity (in words) [1] |
| --- | --- | --- | --- | --- |
| Cc1ccc2c(c1)[C@@]1(C)CCC(=O)[C@@H](NC(=O)CCN3CCN(c4ccccc4)CC3)[C@H]1O2 (relative stereo) [Example 15] | 54 | – | – | – |
| CCN1CCN(CCC(=O)N[C@@H]2C(=O)CC[C@]3(C)c4cc(C)ccc4O[C@H]23)CC1 (relative stereo) [Example 21] | – | > 1000 | – | – |
| Cc1ccc2c(c1)[C@@]1(C)CCC(=O)[C@@H](NC(=O)CCN3CCN(Cc4ccccc4)CC3)[C@H]1O2 (relative stereo) [Example 17] | 33 | > 1000 | – | – |
| Cc1ccc2c(c1)[C@@]1(C)CCC(=O)[C@@H](NC(=O)CCN3CCN(C)CC3)[C@H]1O2 (relative stereo) [Example 1, 8,9bβ-dimethyl-1,2,3,4,4aβ,9b-hexahydro-4α-[3-(4-methylpiperazin-1-yl)-propionamido]-dibenzofuran-3-one dihydrochloride] | 100 | 1480 | 32.5 | important antitussive activity |
| Cc1ccc2c(c1)[C@@]1(C)CCC(=O)[C@@H](NC(=O)CCN3CCN(CCO)CC3)[C@H]1O2 (relative stereo) [Example 16] | 17 | – | – | – |
| Cc1ccc2c(c1)[C@@]1(C)CCC(=O)[C@@H](NC(=O)CN3CCCC3)[C@H]1O2 (relative stereo) [Example 7] | 17 | ~800 | – | – |
| Cc1ccc2c(c1)[C@@]1(C)CCC(=O)[C@@H](NC(=O)CCN(C)CCN(C)C)[C@H]1O2 (relative stereo) [Example 18] | 50 | > 1000 | – | – |
| Cc1ccc2c(c1)[C@@]1(C)CCC(=O)[C@@H](NC(=O)CCCN(C)C)[C@H]1O2 (relative stereo) [Example 23] | 67 | – | – | – |
| Cc1ccc2c(c1)[C@@]1(C)CCC(=O)[C@@H](NC(=O)CCN3CCOCC3)[C@H]1O2 (relative stereo) [Example 9] | 39 | – | – | – |
| Cc1ccc2c(c1)[C@@]1(C)CCC(=O)[C@@H](NC(=O)CCN3CCCC3)[C@H]1O2 (relative stereo) [Example 11] | 44 | ~600 | – | – |
| CC(=O)N1CCN(CCC(=O)N[C@@H]2C(=O)CC[C@]3(C)c4cc(C)ccc4O[C@H]23)CC1 (relative stereo) [Example 20] | 33 | > 1000 | – | – |
| Cc1ccc2c(c1)[C@@]1(C)CCC(=O)[C@@H](NC(=O)CCN(C)C)[C@H]1O2 (relative stereo) [Example 10, 8,9bβ-dimethyl-1,2,3,4,4aβ,9b-hexahydro-4α-[3-N,N-dimethylamino-propionamido]-dibenzofuran-3-one] | 89 | 500 to 1000 | – | important antitussive activity |
| Cc1ccc2c(c1)[C@@]1(C)CCC(=O)[C@@H](NC(=O)CCCN3CCN(C)CC3)[C@H]1O2 (relative stereo) [Example 22, 8,9bβ-dimethyl-1,2,3,4,4aβ,9b-hexahydro-4α-[4-(4-methylpiperazin-1-yl)-butyramido]-dibenzofuran-3-one] | 72 | – | – | – |
| Cc1ccc2c(c1)[C@@]1(C)CCC(=O)[C@@H](NC(=O)CCN3CCNCC3)[C@H]1O2 (relative stereo) [Example 13, 8,9bβ-1,2,3,4,4aβ,9b-hexahydro-4α-[3-piperazinopropionamido]-dibenzofuran-3-one] | 75 | > 1000 | – | – |
| CCN(CC(=O)N[C@@H]1C(=O)CC[C@]2(C)c3cc(C)ccc3O[C@H]12)Cc1ccccc1 (relative stereo) [Example 8] | – | > 800 | – | – |
| Cc1ccc2c(c1)[C@@]1(C)CCC(=O)[C@@H](NC(=O)CN3CCN(C)CC3)[C@H]1O2 (relative stereo) [Example 4] | 43 | > 800 | – | – |
| Cc1ccc2c(c1)[C@@]1(C)CCC(=O)[C@@H](NC(=O)CCN3CCCCC3)[C@H]1O2 (relative stereo) [Example 12] | 46 | ~400 | – | – |
| Cc1ccc2c(c1)[C@@]1(C)CCC(=O)[C@@H](NC(=O)CCCCN(C)C)[C@H]1O2 (relative stereo) [Example 24, 8,9bβ-dimethyl-1,2,3,4,4aβ,9b-hexahydro-4α-[5-N,N-dimethylamino-valeramido]-dibenzofuran-3-one] | 83 | – | 71 | important antitussive activity |
| CCOC(=O)N1CCN(CCC(=O)N[C@@H]2C(=O)CC[C@]3(C)c4cc(C)ccc4O[C@H]23)CC1 (relative stereo) [Example 14] | 33 | > 1000 | – | – |
| Cc1ccc2c(c1)[C@@]1(C)CCC(=O)[C@@H](NC(=O)CCCCCN(C)C)[C@H]1O2 (relative stereo) [Example 25] | 25 | – | – | – |
| CCN(CC)CCC(=O)N[C@@H]1C(=O)CC[C@]2(C)c3cc(C)ccc3O[C@H]12 (relative stereo) [Example 19] | 33 | – | – | – |
